Test results as given in ChEMBL document CHEMBL4043084, “Indole Alkaloids from Hunteria zeylanica” (J Nat Prod, 2017).
The source made the active and inactive calls. The rule behind the calls is not given here.

Columns and labels:
A549 = assay: Cytotoxicity against human A549 cells assessed as reduction in cell viability at 0.0624 to 40 uM incubated for 48 hrs by MTT assay; type: functional, cell-based
SGC-7901 = assay: Cytotoxicity against human SGC7901 cells assessed as reduction in cell viability at 0.0624 to 40 uM incubated for 48 hrs by MTT assay; type: functional, cell-based
HeLa = assay: Cytotoxicity against human HeLa cells assessed as reduction in cell viability at 0.0624 to 40 uM incubated for 48 hrs by MTT assay; type: functional, cell-based
Rhodobium porosum = assay: Insecticidal activity against Rhodobium porosum adults placed on 5 secs compound pre-treated bean leaves after 1 day by leaf dipping protocol based method; type: functional

| SMILES | Activity (A549) | Activity (SGC-7901) | Activity (HeLa) | LC50 (Rhodobium porosum) |
| --- | --- | --- | --- | --- |
| O[C@H]1CC[C@H]2CN3CCc4c([nH]c5ccccc45)[C@@H]3C[C@@H]2C1 | inactive | inactive | inactive | – |
| C/C=C1/C[N@+]2(C)CCc3c([nH]c4ccccc34)C[C@H]1CC2 | inactive | inactive | inactive | – |
| O[C@@H]1CC[C@H]2CN3CCc4c([nH]c5ccccc45)[C@@H]3C[C@@H]2C1 | inactive | inactive | inactive | – |
| CC[C@]12CCCN3CC[C@]4(C(=C(C(=O)OC)C1)Nc1ccccc14)[C@@H]32 | inactive | inactive | inactive | – |
| C/C=C1/CN2CC[C@@]34CN5c6c(cccc6[C@@]67CCN8CCC[C@@]9(CC[C@@]56[C@H]9C)[C@H]87)[C@@]35[C@@H]2CC1[C@@H](C(=O)OC)N5c1ccccc14 | inactive | inactive | inactive | – |
| C/C=C1/C[N@@+](C)([O-])[C@H]2Cc3c4n(c5ccccc35)C35[C@@H]6C[C@H]7/C(=C\C)CN6CCC3(c3ccccc3N5[C@@H]7C(=O)O)[C@H]4CC1[C@H]2C(=O)OC (some centres not stated) | inactive | inactive | inactive | – |
| C/C=C1\C[N+]2(C)CCc3c([nH]c4ccc(O)cc34)[C@@H]2C[C@@H]1CCO (some centres not stated) | inactive | inactive | inactive | – |
| C/C=C1/CN2CCc3c([nH]c4ccc(O)c([C@H]5C[C@@H]6/C(=C\C)CN(C)[C@@H](Cc7c5[nH]c5ccccc75)[C@@]6(CO)C(=O)OC)c34)[C@@H]2C[C@@H]1CCO | inactive | inactive | inactive | – |
| O=[N+]([O-])/N=C1\NCCN1Cc1ccc(Cl)nc1 | – | – | – | 49 µM |
| CC[C@@]12CCCN3CCc4c(n(c5ccccc45)[C@@H](OC)C1)[C@H]32 | inactive | inactive | inactive | – |
| C/C=C1/C[N@@+]2(C)CCc3c([nH]c4ccc(O)c([C@H]5C[C@H]6[C@@]7(C(=O)OC)CO[C@H](N(C)[C@H]7Cc7c5[nH]c5ccccc75)[C@@]65O[C@H]5C)c34)[C@@H]2C[C@@H]1CCO | inactive | inactive | inactive | – |
| CC[C@H]1CN2CCc3c([nH]c4ccccc34)[C@@H]2C[C@@H]1CCO | inactive | inactive | inactive | 291 µM |
| C=C[C@H]1CN2CCc3c([nH]c4ccc(O)c([C@H]5C[C@@H]6/C(=C\C)CN(C)[C@@H](Cc7c5[nH]c5ccccc75)[C@@]6(CO)C(=O)OC)c34)[C@@H]2C[C@@H]1CCO | inactive | inactive | inactive | – |
| C/C=C1/C[N@@+]2(C)CCc3c([nH]c4ccc(O)c([C@H]5C[C@@H]6/C(=C\C)CN(C)[C@@H](Cc7c5[nH]c5ccccc75)[C@@]6(CO)C(=O)OC)c34)[C@@H]2C[C@@H]1CCO | inactive | inactive | inactive | – |
| CC[C@@H]1[C@H]2C[C@@H]3c4[nH]c5ccc(OC)cc5c4[C@@H](C(=O)[C@H]2CO)[C@@H]1N3C | inactive | inactive | inactive | – |
| C/C=C1\CN2CCc3c([nH]c4ccccc34)[C@@H]2C[C@@H]1CCO | inactive | inactive | inactive | 360 µM |
| C/C=C1/CN2CCc3c([nH]c4ccccc34)[C@@H]2C[C@@H]1[C@H](CO)C(=O)OC | inactive | inactive | inactive | – |
| CC[C@@]12CCCN3CCc4c(n(c5ccccc45)[C@H](OC)C1)[C@H]32 | inactive | inactive | inactive | – |
| C/C=C1/CN2CC[C@@]34CN5c6c(cccc6[C@@]67CC[N+]8([O-])CCC[C@@]9(CC[C@@]56[C@H]9C)[C@@H]78)[C@@]35[C@@H]2CC1[C@@H](C(=O)OC)N5c1ccccc14 (some centres not stated) | inactive | inactive | inactive | – |
| C=C[C@H]1CN2CCc3c([nH]c4ccc(O)cc34)[C@@H]2C[C@@H]1CCO | inactive | inactive | inactive | 168 µM |
| C/C=C1/CN(C)[C@H]2Cc3c([nH]c4ccccc34)[C@@H](c3cc4[nH]c5c(c4cc3O)CCN3C[C@H](CC)[C@@H](CCO)C[C@@H]53)C[C@H]1[C@]2(CO)C(=O)OC | inactive | inactive | inactive | – |
| C/C=C1/CN2CCc3c4n(c5ccccc35)[C@H](C(=O)OC)[C@@H]1C[C@@H]42 | inactive | inactive | inactive | – |
